Reference: paper PMC11893401, “Pharmacokinetics and pharmacodynamics of insulin lispro 25 versus the original preparation (Humalog®25) in Chinese healthy male volunteers” (Frontiers in Pharmacology, 2025)

Conditions: in vivo
Method: Tolerability and safety were assessed by closely monitoring blood glucose levels and conducting other tests. All adverse events and severe adverse events (SAEs) were evaluated.
The safety of both formulations was evaluated through the assessment of laboratory examinations, 12-lead electrocardiogram, and vital signs.

Substance | Infusion site swelling
mixed protamine zinc recombinant human insulin lispro injection [listing 1 of 2 here] | 1(2.0) Number of Subjects(%)
mixed protamine zinc recombinant human insulin lispro injection [listing 2 of 2 here] | 0 Number of Subjects(%)
